# Reference: article PMC4506051, “Pharmacokinetic Profiles of Active Ingredients and Its Metabolites Derived from Rikkunshito, a Ghrelin Enhancer, in Healthy Japanese Volunteers: A Cross-Over, Randomized Study” (PLoS ONE, 2015)
# Read-outs that look alike come from different tables or passages of the source.
# Legend:
# [1] = Method validation: post-preparative stability (autosampler)
# [2] = Randomized crossover quantitative trial: plasma pharmacokinetics of nine ingredients after rikkunshito 2.5, 5.0 or 7.5 g; details: for AUC(0-t) / Cmax / Tmax / half-life: human; for AUC(0-t): AUC0-last; for Cmax: C max
# Description: The first trial was a nonrandomized, open-label, one-period design. The second trial was a randomized, open-label, three-arm, three-period design (Fig 1). With respect to inclusion criteria, the studies included healthy Japanese adults between 20 and 45 years of age with a body mass index between 18 and 25 who were willing and able to comply with the study requirements. Exclusion criteria for this study included a history of significant liver, heart, or vessel disease and consumption of supplements that contained any rikkunshito ingredients or any drug within 3 days to 1 week before the first dose. Other standard exclusion criteria included relevant allergies, pregnant or nursing females, and any alcohol or nicotine use. The sample size was set as more than 15 based on the Ministry of Health, Labour and Welfare’s guidelines. Subjects allocated to a screening test were randomized to one of three groups by the central allocation system (allocation ratio 1:1:1). A random sequence was generated using a computer. The safety endpoint was evaluated in all volunteers. This endpoint was defined on the basis of a physician’s judgement after examination or observation that a serious adverse event had occurred. Adverse events included death, a life-threatening event, an event requiring hospitalization for treatment or an extended stay in hospital, an event resulting in permanent or temporary disability or dysfunction, an event resulting in a congenital abnormality, or any other serious medical phenomenon. With respect to side effects, no specific conditions were defined, and all adverse events for which no causal relationship with the drug could be excluded were deemed to be side effects. In each stage during the 48-h period following rikkunshito administration, the physician monitored the patient for subjective symptoms, objective findings, swelling, body temperature (axillary), blood pressure (sitting), and pulse (sitting). The physician also conducted a hematological examination to measure the patient’s red blood cell, leucocyte and platelet counts, hemoglobin level, and hematocrit value. A biochemical examination was conducted to determine total protein, blood urea nitrogen, creatinine, uric acid, aspartate aminotransferase, alanine aminotransferase, total bilirubin, alkaline phosphatase, γ-glutamyltranspeptidase albumin, prothrombin time, total cholesterol, C-reactive protein, and potassium to identify any abnormalities in comparison with the subject’s condition prior to administration. All participants fasted for 12 h before administration and 4 h after administration of the study drug.
# In the second quantitative trial, 12-mL blood samples were collected at 0 (preadministration), 0.25, 0.5, 1, 2, 3, 4, 6, 8, 10, 12, 24, and 48 h after a single oral administration of rikkunshito (Lot H05142). A total of 3 daily doses were used in this trial, i.e., the clinical dose per administration (2.5 g) as the lowest dose, the clinical daily dose (7.5 g) as the highest dose, and an intermediate dose (5.0 g), to broadly discuss the pharmacokinetic characteristics of the ingredients measured. The trial participants were hospitalized overnight on the day they ingested rikkunshito, and returned home the following day after blood samples were collected at the 24-h time point. The participants returned to the hospital to provide blood samples at 48 h. The blood was immediately centrifuged at 1700 ×g for 15 min to obtain plasma. Plasma fractions were stored at −20°C or lower until analysis.
# Plasma, urine, and rikkunshito formulation samples were analyzed for rikkunshito ingredients concentrations using a liquid chromatography–mass spectrometry with tandem mass spectrometer assay (LC–MS/MS; API5000, Triple Quad 6500, or QTRAP5500; AB Sciex, Tokyo, Japan) or gas chromatography–mass spectrometry. Further information of analytical methods can be found at S1 Appendix.
# [3] = Method validation: stability in blood
# [4] = Exploratory trial: plasma concentration of rikkunshito ingredients after single oral rikkunshito 7.5 g; format: in vivo; details: for Plasma concentration, 0 h: 0 h (preadministration), single oral rikkunshito 7.5 g
# Procedure, shortened: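 Plasma and urine levels were measured by LC–MS/MS after one 7.5 g oral dose of rikkunshito. Samples were collected before dosing and at 0.5–8 h for blood, or in 0–4 h and 4–8 h fractions for urine. Synephrine was determined after protein-removal plate cleanup; the other ingredients after β-glucuronidase deconjugation (2 h, 37°C) and SPE.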
# [5] = 7.5 g dosage; cited from earlier work
# [6] = autosampler set at 4°C, 24 h, higher concentration (pachymic acid 800, heptamethoxyflavone 320 pg/mL)
# [7] = autosampler set at 4°C, 24 h, lower concentration (pachymic acid 20, heptamethoxyflavone 8 pg/mL)
# [8] = autosampler set at 4°C, 48 h, higher concentration (800 / 320 / 4000 pg/mL)
# [9] = autosampler set at 4°C, 48 h, lower concentration (20 / 8 / 100 pg/mL)
# [10] = plasma, po, 2.5 g, rikkunshito 2.5 g single oral, n = 21, geometric mean (95% CI)
# [11] = plasma, po, 2.5 g, Median t max (range), rikkunshito 2.5 g single oral, n = 21, median (minimum–maximum)
# [12] = plasma, po, 5 g, rikkunshito 5.0 g single oral, n = 19, geometric mean (95% CI)
# [13] = plasma, po, 5 g, Median t max (range), rikkunshito 5.0 g single oral, n = 19, median (minimum–maximum)
# [14] = plasma, po, 5 g, t 1/2, rikkunshito 5.0 g single oral, n = 19, geometric mean (95% CI)
# [15] = plasma, po, 7.5 g, rikkunshito 7.5 g single oral, n = 19, geometric mean (95% CI)
# [16] = rikkunshito 7.5 g single oral, n = 19, geometric mean (95% CI)
# [17] = rikkunshito 7.5 g single oral, n = 19, median (minimum–maximum)
# [18] = on ice 2 h, higher concentration (800 / 320 / 4000 pg/mL)
# [19] = on ice 2 h, lower concentration (20 / 8 / 100 pg/mL)
# [20] = room temperature 2 h, higher concentration (pachymic acid 800, heptamethoxyflavone 320, naringenin 4000 pg/mL)
# [21] = room temperature 2 h, lower concentration (pachymic acid 20, heptamethoxyflavone 8, naringenin 100 pg/mL)
# [22] = in vivo, po, rikkunshito 2.5 g single oral, n = 21, geometric mean (95% CI)
# [23] = in vivo, po, rikkunshito 5.0 g single oral, n = 19, geometric mean (95% CI)
# [24] = in vivo, po, rikkunshito 7.5 g single oral, n = 19, geometric mean (95% CI)
# [25] = 1 h after single oral rikkunshito 7.5 g, mean ± S.D., n = 4
# [26] = 4 h after single oral rikkunshito 7.5 g, mean ± S.D., n = 4
# [27] = 8 h after single oral rikkunshito 7.5 g, mean ± S.D., n = 4
smiles,measurement,setting,value
"COc1ccc(-c2oc3c(OC)c(OC)c(OC)c(OC)c3c(=O)c2OC)cc1OC [Heptamethoxyflavone, 3,3′,4′,5,6,7,8-heptamethoxyflavone]","Post-preparative stability, RR",[1]; [6],86.3%
same,"Post-preparative stability, RR",[1]; [7],100.3%
same,"Post-preparative stability, RR",[1]; [8],90.8%
same,"Post-preparative stability, RR",[1]; [9],96.5%
same,AUC(0-t),[2]; [10],0.0849 ng·h/mL
same,Cmax,[2]; [10],0.0388 ng/mL
same,Tmax,[2]; [11],0.5 h
same,half-life,"[2]; plasma, po, 2.5 g, t 1/2, rikkunshito 2.5 g single oral, n = 21, geometric mean (95% CI)",1.92 h
same,AUC(0-t),[2]; [12],0.124 ng·h/mL
same,Cmax,[2]; [12],0.0582 ng/mL
same,Tmax,[2]; [13],1 h
same,half-life,[2]; [14],1.5 h
same,AUC(0-t),[2]; [15],0.225 ng·h/mL
same,Cmax,[2]; [15],0.105 ng/mL
same,Tmax,"[2]; plasma, po, 7.5 g, Median t max (range), rikkunshito 7.5 g single oral, n = 19, median (minimum–maximum)",≤ 1 h
same,t 1/2,[2]; [16],1.51 (1.15–1.98) h
same,t 1/2,"[2]; rikkunshito 7.5 g single oral, n = 19, geometric mean (95% CI), listed as heptamethoxyflavone",< 10 h
same,Median t max (range),[2]; [17],1.00 (0.250–1.02) h
same,"Stability in blood, RR",[3]; [18],92.3%
same,"Stability in blood, RR",[3]; [19],97.5%
same,"Stability in blood, RR",[3]; [20],96.0%
same,"Stability in blood, RR",[3]; [21],107.1%
same,"Plasma concentration, 0 h","[4]; mean ± S.D., n = 4",BQL
same,concentration at 0.5 h,"[4]; human, plasma, 0.5 h after single oral rikkunshito 7.5 g, mean ± S.D., n = 4, read-out: Plasma concentration, 0.5 h",0.171 ± 0.18 ng/mL
same,concentration at 1 h,"[4]; human, plasma, 1 h after single oral rikkunshito 7.5 g, mean ± S.D., n = 4",0.253 ± 0.301 ng/mL
same,concentration at 2 h,"[4]; human, plasma, 2 h after single oral rikkunshito 7.5 g, mean ± S.D., n = 4, read-out: Plasma concentration, 2 h",0.157 ± 0.187 ng/mL
same,concentration at 4 h,"[4]; human, plasma, 4 h after single oral rikkunshito 7.5 g, mean ± S.D., n = 4, read-out: Plasma concentration, 4 h",0.0569 ± 0.0821 ng/mL
same,concentration at 8 h,"[4]; human, plasma, 8 h after single oral rikkunshito 7.5 g, mean ± S.D., n = 4, read-out: Plasma concentration, 8 h",0.00613 ± 0.0123 ng/mL
same,Maximum plasma concentration in the preliminary pharmacokinetics study,[5],0.253 ± 0.301 ng/mL
C=C(CC[C@@H](C(=O)O)[C@H]1[C@H](O)C[C@@]2(C)C3=C(CC[C@]12C)[C@@]1(C)CC[C@H](OC(C)=O)C(C)(C)[C@@H]1CC3)C(C)C [Pachymic acid],"Post-preparative stability, RR",[1]; [6],88.4%
same,"Post-preparative stability, RR",[1]; [7],92.4%
same,"Post-preparative stability, RR",[1]; [8],98.2%
same,"Post-preparative stability, RR",[1]; [9],93.8%
same,Plasma concentration just before the administration,"[2]; all subjects, quantitative trial",BQL
same,AUC(0-t),[2]; [22],0.277 ng·h/mL
same,AUC(0-t),[2]; [23],0.716 ng·h/mL
same,AUC(0-t),[2]; [24],1.21 ng·h/mL
same,Cmax,[2]; [22],0.0363 ng/mL
same,Cmax,[2]; [23],0.0612 ng/mL
same,Cmax,[2]; [24],0.091 ng/mL
same,Tmax,"[2]; in vivo, po, Median t max (range), rikkunshito 2.5 g single oral, n = 21, median (minimum–maximum)",6 h
same,Tmax,"[2]; in vivo, po, Median t max (range), rikkunshito 5.0 g single oral, n = 19, median (minimum–maximum)",6 h
same,Tmax,"[2]; in vivo, po, Median t max (range), rikkunshito 7.5 g single oral, n = 19, median (minimum–maximum)",> 3 h
same,half-life,"[2]; in vivo, po, t 1/2, rikkunshito 5.0 g single oral, n = 19, geometric mean (95% CI)",16.2 h
same,Tmax,"[2]; in vivo, t max, after rikkunshito administration, dose not given",6 h
same,t 1/2,[2]; [16],20.5 (14.4–29.2) h
same,t 1/2,"[2]; rikkunshito 7.5 g single oral, n = 19, geometric mean (95% CI), listed as pachymic acid",exceeding 10 h
same,Median t max (range),[2]; [17],6.00 (2.00–11.5) h
same,"Stability in blood, RR",[3]; [18],93.4%
same,"Stability in blood, RR",[3]; [19],103.1%
same,"Stability in blood, RR",[3]; [20],91.8%
same,"Stability in blood, RR",[3]; [21],103.1%
same,"Plasma concentration, 0 h","[4]; mean ± S.D., n = 4",0.14 ± 0.184 ng/mL
same,"Plasma concentration, 0.5 h","[4]; 0.5 h after single oral rikkunshito 7.5 g, mean ± S.D., n = 4",0.126 ± 0.185 ng/mL
same,"Plasma concentration, 1 h",[4]; [25],0.127 ± 0.178 ng/mL
same,"Plasma concentration, 2 h","[4]; 2 h after single oral rikkunshito 7.5 g, mean ± S.D., n = 4",0.205 ± 0.0765 ng/mL
same,"Plasma concentration, 4 h",[4]; [26],0.0905 ± 0.181 ng/mL
same,"Plasma concentration, 8 h",[4]; [27],0.103 ± 0.129 ng/mL
same,Maximum plasma concentration in the preliminary pharmacokinetics study,[5],0.228 ± 0.116 ng/mL
O=C(/C=C/c1ccc(O)cc1)c1ccc(O)cc1O [Isoliquiritigenin],"Post-preparative stability, RR","[1]; 4 pg/mL, autosampler set at 4°C for 25 h",110.0%
same,"Post-preparative stability, RR","[1]; 4 pg/mL, autosampler set at 4°C for 48 h",88.0%
same,"Post-preparative stability, RR","[1]; 160 pg/mL, autosampler set at 4°C for 25 h",115.2%
same,"Post-preparative stability, RR","[1]; 160 pg/mL, autosampler set at 4°C for 48 h",93.8%
same,AUC(0-t),[2]; [10],0.0307 ng·h/mL
same,Cmax,[2]; [10],0.0205 ng/mL
same,Tmax,[2]; [11],0.25 h
same,AUC(0-t),[2]; [12],0.0766 ng·h/mL
same,Cmax,[2]; [12],0.0321 ng/mL
same,Tmax,[2]; [13],0.25 h
same,half-life,[2]; [14],4.12 h
same,AUC(0-t),[2]; [15],0.122 ng·h/mL
same,Cmax,[2]; [15],~0.0428 ng/mL
same,C max,[2]; [16],42.8 (30.4–60.3) pg/mL
same,t 1/2,[2]; [16],3.26 (1.69–6.31) h
same,t 1/2,"[2]; rikkunshito 7.5 g single oral, n = 19, geometric mean (95% CI), listed as isoliquiritigenin",< 10 h
same,Median t max (range),[2]; [17],0.250 (0.250–4.00) h
same,Median t max (range),"[2]; rikkunshito 7.5 g single oral, n = 19, median (minimum–maximum), listed as isoliquiritigenin",≤ 1 h
same,"Stability in blood, RR","[3]; 4 pg/mL, at room temperature for 2 h",81.0%
same,"Stability in blood, RR","[3]; 4 pg/mL, on ice for 2 h",103.0%
same,"Stability in blood, RR","[3]; 160 pg/mL, at room temperature for 2 h",46.8%
same,"Stability in blood, RR","[3]; 160 pg/mL, on ice for 2 h",90.2%
same,"Plasma concentration, 0 h","[4]; mean ± S.D., n = 4",BQL
same,"Plasma concentration, 1 h",[4]; [25],BQL
same,"Plasma concentration, 4 h",[4]; [26],BQL
same,"Plasma concentration, 8 h",[4]; [27],BQL
same,concentration at 0.5 h,"[4]; human, in vivo, po",0.0153 ng/mL
same,concentration at 2 h,"[4]; human, in vivo, po",0.0171 ± 0.0343 ng/mL
same,"Plasma concentration, 0.5 h","[4]; human, in vivo, po, 0.5 h",0.0153 ± 0.018 ng/mL
